These results are taken from patent publication US6946482B2, “Motilide compounds” (Kosan Biosciences, Inc., priority 2002, dated 2005).

Each structure is given as a SMILES string. Values after ≈ are worked out from the molar mass of the structure shown. Like-named read-outs stand apart in the source and are kept apart here.

Experiment [1] relates to Streptococcus pneumoniae ATCC 6301. Put plainly: In vitro susceptibility test (MIC). It counts as cell-based. The conditions noted are these: ATCC6301. The protocol: Antibacterial activity (Table 2) was determined by in vitro susceptibility tests against Streptococcus pneumoniae ATCC 6301, a macrolide-sensitive strain, using methods known in the microbiological art.
For experiment [2], the target named is T1, motilin receptor (Homo sapiens, UniProt O43193).
T1 construct: expressed in transfected cells
To be noted: cited from earlier work.

The target of experiment [3] is T1, motilin receptor. To be noted: cell-based and muscle strip contractility assays; cited from earlier work.
Experiment [4] has as its target T1, motilin receptor. The experiment can be described thus: Motilin receptor desensitization, cell-based assay. As to the method:
Compounds were tested for motilin receptor desensitization using the cell-based assay described in Carreras et al., US 2002/0192709 A1 (2002), “Methods for Evaluating Therapeutic Efficacy,” the disclosure of which is incorporated herein by reference.

Experiment [5] deals with T1, motilin receptor. Put plainly: Motilin receptor activation, calcium-influx assay. The experiment is classed as cell-based. The source says:
The compounds of formula (I) are agonists of the motilin receptor.

Experiment [6] concerns gut contraction. The conditions noted are these: conscious dogs, dose 1 mg/kg; cited from earlier work.
Where [7] appears, read: Streptococcus pneumoniae ATCC 6301, macrolide-sensitive strain, read-out: MIC.

T1 sequence (O43193 whole entry): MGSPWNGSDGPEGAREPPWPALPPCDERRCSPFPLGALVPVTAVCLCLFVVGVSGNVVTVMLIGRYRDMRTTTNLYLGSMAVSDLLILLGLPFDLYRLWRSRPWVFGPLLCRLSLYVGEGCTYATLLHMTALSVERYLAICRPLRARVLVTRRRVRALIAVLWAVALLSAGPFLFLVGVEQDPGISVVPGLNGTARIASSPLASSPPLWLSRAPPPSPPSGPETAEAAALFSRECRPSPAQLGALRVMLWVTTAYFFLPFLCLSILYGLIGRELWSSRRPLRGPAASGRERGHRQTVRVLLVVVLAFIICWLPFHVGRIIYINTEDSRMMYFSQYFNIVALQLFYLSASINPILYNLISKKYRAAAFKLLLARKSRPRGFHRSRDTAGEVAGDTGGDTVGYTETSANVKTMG

In the case of `CCC1OC(=O)C(C)C(OC2CC(C)(OC)C(O)C(C)O2)C(C)C(OC2OC(C)CC(N(C)C)C2O)C(C)(O)CC(C)C(=O)C(C)C(O)C1(C)O` (centres unmarked) [Erythromycin A, reference compound], in experiment [1] (Streptococcus pneumoniae), the MIC came out at 0.03 µg/mL (≈ 0.0409 µM). Further, the “Motilin agonist activity (in words)” value in experiment [2] is on record as “motilin agonist activity”.
Take `CC[C@H]1OC(=O)[C@H](C)[C@@H](OC2C[C@@](C)(OC)C[C@H](C)O2)[C@H](C)[C@@H](OC2O[C@H](C)C[C@H](N(C)C(C)C)[C@H]2O)[C@@]2(C)CC(C)=C(O2)[C@H](C)C(=O)[C@]1(C)OC` (some centres unmarked) [Compound 7]: the “Motilin receptor desensitization (in words)” value in experiment [3] was “show motilin receptor desensitization”.
With `CCCC1OC(=O)C(C)C(OC2CC(C)(OC)C(O)C(C)O2)C(C)C(OC2OC(C)CC(N(C)C(C)C)C2O)C(C)(O)CC(C)C(O)C(C)C(O)C1(C)O` [G, N-desmethyl-N-isopropyl-15-methyl-(9S)-9-dihydroerythromycin A], the “Activity following exposure to compound (% of original activity retained)” value in experiment [4] (1 μM compound) and in experiment [4] (10 μM compound) was 100% throughout. Besides, the MIC in experiment [1] (setting [7]) was more than 100 µg/mL. Further, the EC50 in experiment [5] was 1400 nM.
With `CCC1OC(=O)C(C)C(OC2CC(C)(OC)C(O)C(C)O2)C(C)C(OC2OC(C)CC(N(C)C)C2O)C(C)(O)CC(C)C(O)C(C)C(O)C1(C)O` [A, (9S)-9-dihydroerythromycin A, reference compound], in experiment [1] (setting [7]), the MIC was 0.3 µg/mL (≈ 0.408 µM). Moreover, the EC50 in experiment [5] turned out to be 2500 nM. The “Activity relative to erythromycin, stimulation of gut contraction” value in experiment [6] is reported as 65%.
On to `CCN(C)C1CC(C)OC(OC2C(C)C(OC3CC(C)(OC)C(O)C(C)O3)C(C)C(=O)OC(CCF)C(C)(O)C(O)C(C)C(O)C(C)CC2(C)O)C1O` [D, N-desmethyl-N-ethyl(9S)-9-dihydro-15-fluoroerythromycin A], for which the EC50 in experiment [5] is 2000 nM.
The same measure, in the same setting: the value for `CCCC1OC(=O)C(C)C(OC2CC(C)(OC)C(O)C(C)O2)C(C)C(OC2OC(C)CC(N(C)C(C)CC)C2O)C(C)(O)CC(C)C(O)C(C)C(O)C1(C)O` [H, N-desmethyl-N-(2-butyl) (9S)-9-dihydro-15-methylerythromycin A] was 3300 nM.
`CCC1OC(=O)C(C)C(OC2CC(C)(OC)C(O)C(C)O2)C(C)C(OC2OC(C)CC(N(C)C(C)C)C2O)C(C)(O)CC(C)C(O)C(C)CC1C` [J, N-desmethyl-N-isopropyl-11-deoxy-(9S)-9-dihydroerythromycin B]: the “Activity following exposure to compound (% of original activity retained)” value in experiment [4] (1 μM compound) and in experiment [4] (10 μM compound) was 88% each time. Moreover, in experiment [1] (setting [7]), the MIC is more than 100 µg/mL. Also, the EC50 in experiment [5] turned out to be 160 nM.
On to `CCCC1OC(=O)C(C)C(OC2CC(C)(OC)C(O)C(C)O2)C(C)C(OC2OC(C)CC(N(C)C)C2O)C(C)(O)CC(C)C(O)C(C)C(O)C1(C)O` [F, (9S)-9-dihydro-15-methylerythromycin A], for which the “Activity following exposure to compound (% of original activity retained)” value in experiment [4] (1 μM compound) and in experiment [4] (10 μM compound) was 100% each time. For the same compound, the MIC in experiment [1] (setting [7]) was found to be 1 µg/mL (≈ 1.33 µM). In addition, the EC50 in experiment [5] came to 8600 nM.
As for `COC1(C)CC(OC2C(C)C(=O)OC(CCF)C(C)(O)C(O)C(C)C(O)C(C)CC(C)(O)C(OC3OC(C)CC(N(C)C)C3O)C2C)OC(C)C1O` [C, (9S)-9-dihydro-15-fluoroerythromycin A], in experiment [5], the EC50 stood at 5000 nM.
For `COC1(C)CC(OC2C(C)C(=O)OC(CCF)C(C)(O)C(O)C(C)C(O)C(C)CC(C)(O)C(OC3OC(C)CC(N(C)C(C)C)C3O)C2C)OC(C)C1O` [E, N-desmethyl-N-isopropyl(9S)-9-dihydro-15-fluoroerythromycin A], the EC50 in experiment [5] came to 520 nM.
Same read-out and setting: the value for `CCC1OC(=O)C(C)C(OC2CC(C)(OC)C(O)C(C)O2)C(C)C(OC2OC(C)CC(N(C)C(C)C)C2O)C(C)(O)CC(C)C(O)C(C)C(O)C1(C)O` (centres unmarked) [B] was 490 nM.

One may read the MIC as the lowest concentration that inhibits growth of the organism. What is called EC50 is the concentration that produces a half-maximal response.
